We go through 2 compounds from article PMC11653257, “Organometallic Half-Sandwich Complexes of 8-Hydroxyquinoline-Derived Mannich Bases with Enhanced Solubility: Targeting Multidrug Resistant Cancer” (Inorganic Chemistry, 2024).

Data set [1] relates to MES-SA. The following applies: monoculture, PrestoBlue; ref SI2; cited from earlier work.
The test system of data set [2] is MES-SA/Dx5. As to the kind of experiment: Cytotoxicity in double coculture, MES-SA/Dx5 eGFP. To be noted: for IC50: Homo sapiens, MES-SA/Dx5, 144 h, read-out: IC50 MES-SA/Dx5; for SR = IC50 (MES-SA)/IC50 (MES-SA/Dx5): double coculture.
Procedure: (§5) Therefore, the novel half-sandwich complexes (1–4) and their corresponding ligands were tested against a coculture of MES-SA and MES-SA/Dx5 cells expressing the fluorescent proteins mCherry or eGFP, respectively.[62]
(§6) The tested compounds were dissolved in 50% (v/v) DMSO/PBS’ buffer to prepare 5–10 mM stock solutions, which were diluted in complete culture medium. Constitutive expression of the fluorescent proteins allowed multiplexing in cytotoxicity experiments.[62] […] Serial dilutions of the compounds were added 24 h after seeding. To address the effect of P-gp function, TQ was added at a nontoxic concentration (0.4 μM) 15 min before the test compounds. […] IC50 values and standard deviation were calculated from average pIC50 values from at least 3 independent measurements.
The test system of another data set is A431-B1. More on the design: method as in earlier work. The following applies: monoculture, ref SI3, cited from earlier work.
In data set [3] the test system is MES-SA. The data set is described as follows: Cytotoxicity in double coculture, MES-SA mCherry. The following applies: Homo sapiens, MES-SA, 144 h, read-out: IC50 MES-SA.
Procedure: as §5, §6
Data set [4] deals with MES-SA/Dx5. To be noted: monoculture, ref SI2, cited from earlier work.
For data set [5] the following is noted: pH 7.4; cited from earlier work.
The next data set relates to A431. Details: method as in earlier work. The following applies: monoculture, 72 h, PrestoBlue; ref SI3; cited from earlier work.
The test system of data set [6] is MES-SA/Dx5. The data set is described as follows: Cytotoxicity in triple coculture, MES-SA/Dx5 eGFP. Type of data set: cell-based, human. Here is the method: (§1) Cell lines were purchased from the American Type Culture Collection (ATCC). MES-SA/B1 is a human MDR1-transfected derivative of MES-SA, and MES-SA mCherry, MES-SA/B1 mOrange, and MES-SA/Dx5 eGFP were engineered to stably express the respective fluorescent proteins previously.[62] Cells were kept in culture medium (DMEM) supplemented with 10% fetal bovine serum, 2 mM L-glutamine, 100 units/mL penicillin, and 100 μg/mL streptomycin (Thermo Fisher). One week before use, MES-SA/Dx5 eGFP cells were treated with 0.5 μM doxorubicin to ensure ABCB1/P-gp expression.
(§2) The tested compounds were dissolved in 50% (v/v) DMSO/PBS’ buffer to prepare 5–10 mM stock solutions, which were diluted in complete culture medium. Constitutive expression of the fluorescent proteins allowed multiplexing in cytotoxicity experiments.[62] Cells were mixed before seeding in 384-well plates: in double cocultures, MES-SA mCherry and MES-SA/Dx5 eGFP cells were seeded at 1250–1250 cells/well (in total 2500 cells/well); while in triple cocultures, MES-SA mCherry, MES-SA/Dx5 eGFP and MES-SA/B1 mOrange cells were seeded at 800–800–800 cells/well (in total 2400 cells/well). Serial dilutions of the compounds were added 24 h after seeding. To address the effect of P-gp function, TQ was added at a nontoxic concentration (0.4 μM) 15 min before the test compounds. The intensity of the fluorescent proteins, which is proportional to cell mass, was measured after 144 h of incubation at the respective fluorescent channels (excitation/emission: eGFP: 485 nm/510 nm; mOrange: 545 nm/567 nm; mCherry: 585 nm/610 nm). pIC50 values were calculated by a custom program written by Judit Sessler in C#.[62] IC50 values and standard deviation were calculated from average pIC50 values from at least 3 independent measurements.

For another data set, the system named is Colo320. The data set is described as follows: Cytotoxicity, Colo320. The following applies: this work. Format: cell-based, human. The source says: (§3) Supplementary Information
(§4) (11 pictures or pasted objects on this page, not shown here)

The subject of data set [7] is MES-SA. As to the kind of experiment: Cytotoxicity in triple coculture, MES-SA mCherry. Type of data set: cell-based, human. The following applies: Homo sapiens, MES-SA/B1, MES-SA/Dx5, 144 h. Here is the method:
as §1, §2

In the next data set the test system is Colo205. The data set is described as follows: Cytotoxicity, Colo205. Format: cell-based. To be noted: Homo sapiens, COLO 205; 72 h incubation; this work.
Text: as §3, §4

Where two headings read alike, the source gives them in different places.

In the case of `Oc1c(CN2CCCCC2)ccc2cccnc12` [PHQ, 7-(1-piperidinylmethyl)quinolin-8-ol, reference compound], the IC50 is 3630 ± 580 nM in the data set on MES-SA [1]; 490 nM with MES-SA/Dx5 [2]; 2480 ± 700 nM with A431-B1 (72 h, PrestoBlue); 3800 nM in the data set on MES-SA [3]; 620 ± 30 nM in the data set on MES-SA/Dx5 [4] (PrestoBlue); 10100 ± 2950 nM with A431. In addition, the “SR = IC50 (MES-SA)/IC50 (MES-SA/Dx5)” value in the data set on MES-SA/Dx5 [2] (+ 0.4 μM tariquidar (TQ)) worked out at 1.8; in the data set with MES-SA/Dx5 [2] (without TQ), 7.8. Also, in the data set on A431-B1, the “SR (A431 / A431-B1)” value was 4.09. The “SR (MES-SA / MES-SA/Dx5)” value in the data set on MES-SA/Dx5 [4] (+ 1 µM TQ) is 0.92; in the data set with MES-SA/Dx5 [4], 5.85. In addition, the “log D7.4” value in data set [5] is “+0.93”.
In the case of `COc1cccc2c1C(=O)c1c(O)c3c(c(O)c1C2=O)C[C@@](O)(C(=O)CO)C[C@@H]3O[C@H]1C[C@H](N)[C@H](O)[C@H](C)O1` [doxorubicin, reference compound], the “SR Dx5 = IC50 (MES-SA)/IC50 (MES-SA/Dx5)” value in the data set with MES-SA/Dx5 [6] is reported as 0.03. The IC50 in the data set on MES-SA/Dx5 [6] (Homo sapiens, MES-SA/Dx5, 144 h) worked out at 1070 nM; with MES-SA/Dx5 [2] it was 2620 nM; in the data set on MES-SA [3] it was 30 nM; with Colo320 (Homo sapiens, COLO 320, 72 h incubation) it was 190 ± 20 nM; in the data set with MES-SA [7], 30 nM; in the data set with Colo205, 50 ± 10 nM. Also, the “SR = IC50 (MES-SA)/IC50 (MES-SA/Dx5)” value is 1.3 with MES-SA/Dx5 [2] (+ 0.4 μM tariquidar (TQ)) and 0.01 in the data set on MES-SA/Dx5 [2] (without TQ). In the data set with Colo320, the “SR (Colo205 / Colo320)” value was found to be 0.3.
